Data published in patent publication US20150246024A1 (priority 2012, published 2015).
In brackets after ≈: the same amount, converted by molar mass. Several values for one entry are separate records, joined by “and”; a condition that tells them apart may be missing. Equal values may be shown once. Entries after “also recorded” stand apart in the source; their conditions may differ.

Tests used:
[1] = tested on: S. aureus RN4220 (MSSA); assay: microbe, parasite or virus in culture; type: cell-based; details: 37° C., 18-22 hours, OD600
[2] = tested on: LTA production in S. aureus; assay: Inhibition of LTA synthesis in S. aureus (immunoblot)
[3] = tested on: E. faecalis V583; type: cell-based
[4] = tested on: B. anthracis Sterne; assay: microbe, parasite or virus in culture; type: cell-based; details: 37° C., 18-22 hours, OD600
[5] = biological target: eLtaS (Staphylococcus aureus, UniProt Q2G093); assay: eLtaS-mediated cleavage of NBD-PGC6 to NBD-DAGC6; type: biochemical, S. aureus; details: 100 μM compound, 6 hours, 37° C.
Sequence of eLtaS (Q2G093 218-646): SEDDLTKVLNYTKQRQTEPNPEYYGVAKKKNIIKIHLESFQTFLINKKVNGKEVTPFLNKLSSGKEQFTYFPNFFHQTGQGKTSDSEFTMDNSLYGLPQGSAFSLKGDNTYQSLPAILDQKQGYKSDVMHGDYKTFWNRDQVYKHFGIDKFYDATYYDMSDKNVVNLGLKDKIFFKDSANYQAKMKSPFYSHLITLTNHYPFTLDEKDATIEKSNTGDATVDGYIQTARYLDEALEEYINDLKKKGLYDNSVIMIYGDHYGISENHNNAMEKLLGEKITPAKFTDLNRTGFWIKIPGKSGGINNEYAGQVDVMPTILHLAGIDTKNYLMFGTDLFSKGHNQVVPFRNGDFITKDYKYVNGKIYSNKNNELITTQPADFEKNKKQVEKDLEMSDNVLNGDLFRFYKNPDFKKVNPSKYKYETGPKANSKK
Protocol: FIG. 10. Compound 1771 inhibits eLtaS binding to and cleavage of phosphatidylglycerol (PG) in vitro. Using NBD-PGC6 with 6 carbon acyl chains cleavage of 2 nmol substrate by 2 nmol eLtaS was detectable after 6 hours incubation at 37° C. Chloroform extraction separated non-hydrolyzed NBD-PGC6 (aqueous phase—AP) from the hydrophobic reaction product nitro-benzoxadiazole diacylglycerol (NBD-DAGC6), which segregated into the organic phase (OP). Both phases were analyzed by normal-phase HPLC on a diol column (solid line). Elution profiles were monitored by fluorescence (excitation at 460 nm, emission at 534 nm). Identity of peak fractions was confirmed by mass spectrometry. Addition of 100 μM compound 1771 blocked NBD-DAGC6 production by eLtaS (dashed line).
We used size exclusion HPLC with BioBasic SEC300 column equilibrated with 20 nmol nitro-benzoxadiazole glycerol-phosphate (NBD-GP) to measure binding of enzyme to substrate. Chromatography of 2 nmol eLtaS on BioBasic SEC300 column led to the elution of enzyme.NBD-GP complex and absorbance at 460 nm (FIG. 5). […]

[6] = tested on: S. aureus RN4220; assay: Growth of S. aureus culture with sub-lethal compound (OD600); details: until control culture OD600 1.0
[7] = tested on: B. anthracis LtaS2BA expressed in E. coli; type: cell-based; details: 200 μM compound
[8] = tested on: C. difficile R20291; assay: Growth inhibition assay (MIC/IC50), 96-well; type: cell-based
[9] = tested on: B. cereus G9142; type: cell-based
[10] = tested on: S. aureus RN4220; type: cell-based
[11] = tested on: C. perfringens SM101; type: cell-based; details: nitrogen atmosphere, 37° C., 18-22 hours
[12] = tested on: E. coli; type: cell-based
[13] = biological target: Recombinant S. aureus LtaSSA expressed in E. coli (Staphylococcus aureus, UniProt Q2G093); type: cell-based
Sequence of Recombinant S. aureus LtaSSA expressed in E. coli (Q2G093 whole entry): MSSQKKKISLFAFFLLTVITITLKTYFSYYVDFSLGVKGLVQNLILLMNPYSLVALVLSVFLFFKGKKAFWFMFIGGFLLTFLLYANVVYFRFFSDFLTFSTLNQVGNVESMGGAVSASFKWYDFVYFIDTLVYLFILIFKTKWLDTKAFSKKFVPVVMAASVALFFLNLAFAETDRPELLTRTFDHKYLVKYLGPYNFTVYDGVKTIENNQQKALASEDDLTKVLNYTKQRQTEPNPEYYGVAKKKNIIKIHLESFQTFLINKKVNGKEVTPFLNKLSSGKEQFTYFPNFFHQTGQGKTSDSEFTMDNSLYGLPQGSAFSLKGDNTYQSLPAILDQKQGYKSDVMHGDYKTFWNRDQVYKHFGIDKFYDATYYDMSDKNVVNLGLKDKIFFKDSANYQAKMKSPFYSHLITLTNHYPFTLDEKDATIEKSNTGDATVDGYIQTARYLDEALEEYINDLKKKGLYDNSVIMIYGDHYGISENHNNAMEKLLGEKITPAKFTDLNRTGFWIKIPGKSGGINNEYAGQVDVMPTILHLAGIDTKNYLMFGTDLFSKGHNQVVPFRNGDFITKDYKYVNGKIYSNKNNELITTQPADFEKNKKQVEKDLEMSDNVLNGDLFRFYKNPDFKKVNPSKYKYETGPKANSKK

[14] = tested on: S. aureus RN4220 colony isolates from gradient plates with 10-200 μM compound 1771; assay: Susceptibility of colony isolates from compound 1771 gradient plates; type: cell-based
[15] = tested on: E. faecium - VRE TX0016; assay: microbe, parasite or virus in culture; type: cell-based; details: 37° C., 18-22 hours, OD600
[16] = tested on: E. faecium TX0016; type: cell-based
[17] = tested on: C. difficile UK1; assay: Growth inhibition assay (MIC/IC50), 96-well; type: cell-based
[18] = Half-life of compound in mice (blood, HPLC, mass spectrometry); type: in vivo; details: 32 mg/kg intraperitoneal
Protocol: The therapeutic impact of compound 1771 during infection was examined. First, we evaluated the half-life of compound 1771 in vivo. Animals received intraperitoneal injections with 32 mg/kg of compound. The blood of three animals was drawn 1, 6 and 12 hours following intraperitoneal injections and the compound was extracted with methanol and chloroform, separated by reverse phase HPLC and subjected to mass spectrometry (data not shown). […] The conversion occurred between 3 and 6 hours. To evaluate, the efficacy of compound 1771, we used a mouse model of staphylococcal sepsis. Animals received intraperitoneal injections with 32 mg/kg of compound in 12-hour intervals. Treatment was initiated 24 hours prior to challenge and terminated at 72 hours post infection.
To examine the therapeutic value of compound 1771, we evaluated its half-life in mice. Animals received a single intraperitoneal injection of 32 mg/kg compound 1771. The blood of three animals was drawn 1, 6 and 12 hours following 1771 injection and serum samples were extracted with methanol and chloroform, separated by reversed-phase HPLC and subjected to mass spectrometry. […] Full conversion of compound 1771 into its two cleavage fragments occurred between 3 and 6 hours following injection. […]

[19] = tested on: C. difficile CD196; assay: Growth inhibition assay (MIC/IC50), 96-well; type: cell-based
[20] = tested on: E. faecalis - VRE V583; assay: microbe, parasite or virus in culture; type: cell-based; details: 37° C., 18-22 hours, OD600
[21] = tested on: S. aureus - MRSA USA300; assay: microbe, parasite or virus in culture; type: cell-based; details: 37° C., 18-22 hours, OD600
[22] = tested on: B. anthracis Sterne; type: cell-based; details: 5 μM compound, liquid culture
[23] = tested on: B. anthracis Ames; type: cell-based; details: 37° C., 18-22 hours, OD600
[24] = tested on: B. anthracis Sterne; type: cell-based
[25] = tested on: S. aureus RN4220; type: cell-based; remark: listed apart in the source
[26] = biological target: extracellular S. aureus LtaS (eLtaS) (Staphylococcus aureus, UniProt Q2G093); type: binding; details: 200 μM compound in mobile phase
Sequence of extracellular S. aureus LtaS (eLtaS) (Q2G093 218-646): as the sequence (Q2G093 218-646) above

[27] = tested on: C. difficile JIR8094; assay: Growth inhibition assay (MIC/IC50), 96-well; type: cell-based; details: sigmoidal fit
[28] = tested on: E. faecium TX0016; type: cell-based; remark: listed apart in the source
[29] = tested on: E. faecalis V583; type: cell-based; remark: listed apart in the source

O=C(COC(=O)Cc1coc2ccc3ccccc3c12)Nc1nnc(-c2ccccc2)o1 [Compound 1771, 2-oxo-2-[(5-phenyl-1,3,4-oxadiazol-2-yl)amino]ethylnaphtho[2,1-b]furan-1-ylacetate]
MIC [1]: 12.5 µM (≈ 5.34 µg/mL)
IC50 ([1]; sigmoidal fit, read-out: IC50): 7.48 µM and 7.3 µM
LtaS immunoreactive signals ([2]; 5 μM compound): slightly unstable; also recorded: reduced
abundance of sortase A (SrtA), control ([2]; 2 or 5 μM compound): remained unaffected; also recorded: not affected
LTA production (immunoblot α-LTA) ([2]; sub-lethal concentrations of compound): affect the production of LTA; also recorded: reduced the abundance of LTA
Cell envelope diameter [3]: 31.6 (±0.6) nm
Cell envelope diameter Δ (1771 vs mock) [3]: 7.8 (±0.7) nm
MIC [4]: 12.5 µM (≈ 5.34 µg/mL)
IC50 ([4]; sigmoidal fit, read-out: IC50): 7.7 µM and 6.53 µM
NBD-DAGC6 production by eLtaS [5]: blocked; also recorded: inhibited
reduced growth of staphylococci ([6]; 2 μM compound): 50%
reduced growth of staphylococci ([6]; 5 μM compound): 75%
LTA production by LtaS2BA [7]: completely abolished; also recorded: abrogated
MIC [8]: 6.2 µM (≈ 2.65 µg/mL)
IC50 ([8]; sigmoidal fit): 5.3 µM
IC50 [9]: 10.7 µM
MIC [9]: 25.0 µM (≈ 10.7 µg/mL)
Cell clusters/all cocci [10]: 3/387
MIC [11]: 6.2 µM (≈ 2.65 µg/mL)
IC50 ([11]; sigmoidal fit): 2.5 µM
growth of E. coli [12]: not affected; also recorded: did not affect the growth
production of LTA promoted by plasmid encoded LtaSSA [13]: abrogated
IC50 ([14]; Isolate 1): 8.7 µM
MIC ([14]; Isolate 1): 18.8 µM (≈ 8.04 µg/mL)
IC50 ([14]; Isolate 2): 9.2 µM
MIC ([14]; Isolate 2): 18.8 µM (≈ 8.04 µg/mL)
IC50 ([14]; Isolate 3): 12.2 µM
MIC ([14]; Isolate 3): 18.8 µM (≈ 8.04 µg/mL)
MIC [15]: 50.0 µM (≈ 21.4 µg/mL)
IC50 ([15]; sigmoidal fit, read-out: IC50): 23.3 µM
Cell envelope diameter [16]: 32.4 (±0.5) nm
Cell envelope diameter Δ (1771 vs mock) [16]: 9.6 (±0.6) nm
MIC [17]: 6.2 µM (≈ 2.65 µg/mL)
IC50 ([17]; sigmoidal fit): 3.3 µM
stability in mice [18]: unstable in mice with rapid loss of activity
MIC [19]: 6.5 µM (≈ 2.78 µg/mL)
IC50 ([19]; sigmoidal fit): 4.3 µM
MIC [20]: 50.0 µM (≈ 21.4 µg/mL)
IC50 ([20]; sigmoidal fit, read-out: IC50): 27.3 µM
MIC [21]: 50.0 µM (≈ 21.4 µg/mL)
IC50 ([21]; sigmoidal fit, read-out: IC50): 14 µM
chain length of vegetative bacilli [22]: increased chain length; also recorded: formed longer chains
MIC [23]: 12.5 µM (≈ 5.34 µg/mL)
IC50 ([23]; sigmoidal fit): 7.6 µM
Cell envelope diameter Δ (1771 vs mock) ([24]; 8 μM compound): 6.3 (±1.0) nm
Cell envelope diameter ([24]; BHI agar with 8 μM compound, mean of 124 (SEM)): 46.8 (±0.7) nm
Cell envelope diameter [25]: 38.8 (±0.9) nm
Cell envelope diameter Δ (1771 vs mock) [25]: 7.5 (±1.1) nm
Co-elution of phosphatidylglycerol with eLtaS, reduction [26]: more than 95%
elution of NBD-PG.eLtaS complex [26]: abolished
IC50 [27]: 8.2 µM
Cell clusters/all cocci [28]: 1/295
Cell clusters/all cocci [29]: 2/496
